Measured values published in article PMC8877061, “Antifungal and Antibiofilm Activity of Cyclic Temporin L Peptide Analogues against Albicans and Non-Albicans Candida Species” (Pharmaceutics, 2022).
Where two headings read alike, the source gives them in different places. Positions of bridges follow the written chain, without caps; N, C: chain ends. Non-standard residues stand in square brackets, D forms with d. Residues, ends and D or L forms follow the SMILES beside them. Triazole bridges read from a SMILES are 1,4-linked. dLys(N3) = [N-]=[N+]=NCCCC[C@@H](N)C(=O)O; Lys(N3) = [N-]=[N+]=NCCCC[C@H](N)C(=O)O; S5 = C=CCCC[C@](C)(N)C(=O)O; dPra = C#CC[C@@H](N)C(=O)O; Pra = C#CC[C@H](N)C(=O)O

What was measured:
C. albicans ATCC 90028 = format: cell-based
Procedure: C. albicans ATCC 90028, C. auris DSM 21092, C. glabrata DSM 11226, C. tropicalis DSM11951 and C. parapsilosis DSM 4874 grown on YPD Agar (1% w/v yeast extract, 2% w/v peptone, 2% w/v glucose, 1.5% Agar) were cultured in Tryptone soya broth supplemented with 0.1% glucose for 16–18 h at 37 °C, washed twice using sterile phosphate-buffered saline (PBS) and standardized to […] as required for the experiments. RPMI1640 medium (Thermo Fisher Scientific, Waltham, MA, USA) buffered to a pH of 7.0 with 0.165 M MOPS was used for growing the biofilms of all Candida species.
The antifungal activity of peptides against all five Candida species was determined according to CLSI-M27-A3 [33], as reported previously. Briefly, the compounds were tested at concentrations ranging from […] to 50 μM, and the organism suspensions were adjusted to an inoculum of 10^6 cell/mL at OD 590 nm in RPMI 1640, added to the 96-well plate and incubated at 37 °C for 24 h. The minimum inhibitory concentration (MIC) values were determined as the lowest concentration inhibiting fungal growth at 590 nm using a microplate reader (Synergy™ H4; BioTek Instruments, Inc., Winooski, VT, USA). […] The MFC was the lowest concentration that yielded no colony growth on the agar. The MFC/MIC ratio was calculated to determine whether the substance had fungistatic (MFC/MIC ≥ 4) or fungicidal (MFC/MIC < 4) activity.

C. parapsilosis DSM 5784 = format: cell-based
[1] = CLSI-M27-A3, RPMI 1640, 10^6 cell/mL, 37 °C, 24 h, read at 590 nm, tested 6.5 to 50 μM

## CC[C@H](C)[C@@H]1NC(=O)[C@H](CCCNC(=N)N)NC(=O)CNC(=O)[C@H](NC(=O)[C@H](Cc2ccccc2)NC(=O)[C@H](CCCCN)NC(=O)[C@H](CO)NC(=O)[C@H](Cc2ccccc2)NC(=O)[C@H](Cc2c[nH]c3ccccc23)NC(=O)[C@@H]2CCCN2C(=O)[C@@H](NC(=O)[C@@H](N)Cc2ccccc2)C(C)C)CCCCNC(=O)CC[C@@H](C(N)=O)NC1=O [compound 1] (H-FVPWFSKF[dK]GRIE-NH2; lactam 9-13; N-terminus assumed)
C. albicans ATCC 90028; [1]
  MIC, C. albicans ATCC 90028: >50 µM
C. parapsilosis DSM 5784; [1]
  MIC, C. parapsilosis DSM 5784: >50 µM

## CC(C)C[C@H](NC(=O)[C@@H]1CCC(=O)NCCCC[C@H](NC(=O)[C@H](CCCCN)NC(=O)[C@H](CO)NC(=O)[C@H](Cc2ccccc2)NC(=O)[C@H](Cc2c[nH]c3ccccc23)NC(=O)[C@@H]2CCCN2C(=O)[C@@H](NC(=O)[C@@H](N)Cc2ccccc2)C(C)C)C(=O)N[C@H](CC(C)C)C(=O)NCC(=O)N[C@@H](CCCNC(=N)N)C(=O)N1)C(N)=O [compound 2] (H-FVPWFSKK[dL]GREL-NH2; lactam 8-12; N-terminus assumed)
C. albicans ATCC 90028; ATCC 90028, 24 h
  MIC, C. albicans ATCC 90028: >50 µM
C. parapsilosis DSM 5784; DSM 5784, 24 h
  MIC, C. parapsilosis DSM 5784: >50 µM

## CC[C@H](C)[C@H](NC(=O)[C@H](CCCNC(=N)N)NC(=O)CNC(=O)[C@H]1CCC(=O)NCCCC[C@H](NC(=O)[C@H](Cc2c[nH]c3ccccc23)NC(=O)[C@@H]2CCCN2C(=O)[C@@H](NC(=O)[C@@H](N)Cc2ccccc2)C(C)C)C(=O)N[C@@H](CO)C(=O)N[C@@H](CCCCN)C(=O)N[C@@H](Cc2ccccc2)C(=O)N1)C(=O)N[C@@H](CC(C)C)C(N)=O [compound 4] (H-FVPWKSKF[dE]GRIL-NH2; lactam 5-9; N-terminus assumed)
C. albicans ATCC 90028; ATCC 90028, 24 h
  MIC, C. albicans ATCC 90028: >50 µM
C. parapsilosis DSM 5784; DSM 5784, 24 h
  MIC, C. parapsilosis DSM 5784: >50 µM

## CC[C@H](C)[C@H](NC(=O)[C@H](CCCNC(=N)N)NC(=O)CNC(=O)[C@@H](CC(C)C)NC(=O)[C@@H]1CCC(=O)NCCCC[C@H](NC(=O)[C@@H]2CCCN2C(=O)[C@@H](NC(=O)[C@@H](N)Cc2ccccc2)C(C)C)C(=O)N[C@@H](Cc2ccccc2)C(=O)N[C@@H](CO)C(=O)N[C@@H](CCCCN)C(=O)N1)C(=O)N[C@@H](CC(C)C)C(N)=O [compound 5] (H-FVPKFSKE[dL]GRIL-NH2; lactam 4-8; N-terminus assumed)
C. albicans ATCC 90028; ATCC 90028, 24 h
  MIC, C. albicans ATCC 90028: >50 µM
C. parapsilosis DSM 5784; DSM 5784, 24 h
  MIC, C. parapsilosis DSM 5784: >50 µM

## CC[C@H](C)[C@@H]1NC(=O)[C@H](CCCNC(=N)N)NC(=O)CNC(=O)[C@H](NC(=O)[C@H](Cc2ccccc2)NC(=O)[C@H](CCCCN)NC(=O)[C@H](CO)NC(=O)[C@H](Cc2ccccc2)NC(=O)[C@H](Cc2c[nH]c3ccccc23)NC(=O)[C@@H]2CCCN2C(=O)[C@@H](NC(=O)[C@@H](N)Cc2ccccc2)C(C)C)Cc2cn(nn2)CCCC[C@@H](C(N)=O)NC1=O [compound 6] (H-FVPWFSKF[dPra]GRI[Lys(N3)]-NH2; triazole 9-13; N-terminus assumed)
C. albicans ATCC 90028; ATCC 90028, 24 h
  MIC, C. albicans ATCC 90028: >50 µM
C. parapsilosis DSM 5784; DSM 5784, 24 h
  MIC, C. parapsilosis DSM 5784: >50 µM

## CC[C@H](C)[C@H](NC(=O)[C@H](CCCNC(=N)N)NC(=O)[C@@H]1CCCCn2cc(nn2)C[C@H](NC(=O)[C@H](Cc2ccccc2)NC(=O)[C@H](Cc2c[nH]c3ccccc23)NC(=O)[C@@H]2CCCN2C(=O)[C@@H](NC(=O)[C@@H](N)Cc2ccccc2)C(C)C)C(=O)N[C@@H](CCCCN)C(=O)N[C@@H](Cc2ccccc2)C(=O)N[C@H](CC(C)C)C(=O)N1)C(=O)N[C@@H](CC(C)C)C(N)=O [compound 8] (H-FVPWF[Pra]KF[dL][Lys(N3)]RIL-NH2; triazole 6-10; N-terminus assumed)
C. albicans ATCC 90028; ATCC 90028, 24 h
  MIC, C. albicans ATCC 90028: >50 µM
C. parapsilosis DSM 5784; DSM 5784, 24 h
  MIC, C. parapsilosis DSM 5784: >50 µM

## CC[C@H](C)[C@H](NC(=O)[C@H](CCCNC(=N)N)NC(=O)CNC(=O)[C@H]1CCCCn2cc(nn2)C[C@H](NC(=O)[C@H](Cc2c[nH]c3ccccc23)NC(=O)[C@@H]2CCCN2C(=O)[C@@H](NC(=O)[C@@H](N)Cc2ccccc2)C(C)C)C(=O)N[C@@H](CO)C(=O)N[C@@H](CCCCN)C(=O)N[C@@H](Cc2ccccc2)C(=O)N1)C(=O)N[C@@H](CC(C)C)C(N)=O [compound 9] (H-FVPW[Pra]SKF[dLys(N3)]GRIL-NH2; triazole 5-9; N-terminus assumed)
C. albicans ATCC 90028; ATCC 90028, 24 h
  MIC, C. albicans ATCC 90028: >50 µM
C. parapsilosis DSM 5784; DSM 5784, 24 h
  MIC, C. parapsilosis DSM 5784: >50 µM

## CC[C@H](C)[C@H](NC(=O)[C@H](CCCNC(=N)N)NC(=O)CNC(=O)[C@@H](CC(C)C)NC(=O)[C@@H]1CCCCn2cc(nn2)C[C@H](NC(=O)[C@@H]2CCCN2C(=O)[C@@H](NC(=O)[C@@H](N)Cc2ccccc2)C(C)C)C(=O)N[C@@H](Cc2ccccc2)C(=O)N[C@@H](CO)C(=O)N[C@@H](CCCCN)C(=O)N1)C(=O)N[C@@H](CC(C)C)C(N)=O [compound 10] (H-FVP[Pra]FSK[Lys(N3)][dL]GRIL-NH2; triazole 4-8; N-terminus assumed)
C. albicans ATCC 90028; ATCC 90028, 24 h
  MIC, C. albicans ATCC 90028: >50 µM
C. parapsilosis DSM 5784; DSM 5784, 24 h
  MIC, C. parapsilosis DSM 5784: >50 µM

## CC(C)C[C@H](NC(=O)[C@@H]1CCC(=O)NCCCC[C@H](NC(=O)[C@H](Cc2c[nH]c3ccccc23)NC(=O)[C@@H]2CCCN2C(=O)[C@@H](NC(=O)[C@@H](N)Cc2ccccc2)C(C)C)C(=O)N[C@@H](CO)C(=O)N[C@@H](CCCCN)C(=O)N[C@@H](Cc2ccccc2)C(=O)N[C@H](CC(C)C)C(=O)NCC(=O)N[C@@H](CCCNC(=N)N)C(=O)N1)C(N)=O [compound 12] (H-FVPWKSKF[dL]GREL-NH2; lactam 5-12; N-terminus assumed)
C. albicans ATCC 90028; ATCC 90028, 24 h
  MIC, C. albicans ATCC 90028: >50 µM
C. parapsilosis DSM 5784; DSM 5784, 24 h
  MIC, C. parapsilosis DSM 5784: >50 µM

## CC[C@H](C)[C@@H]1NC(=O)[C@H](CCCNC(=N)N)NC(=O)CNC(=O)[C@@H](CC(C)C)NC(=O)[C@H](Cc2ccccc2)NC(=O)[C@H](CCCCN)NC(=O)[C@@H](NC(=O)[C@H](Cc2ccccc2)NC(=O)[C@H](Cc2c[nH]c3ccccc23)NC(=O)[C@@H]2CCCN2C(=O)[C@@H](NC(=O)[C@@H](N)Cc2ccccc2)C(C)C)Cc2cn(nn2)CCCC[C@@H](C(N)=O)NC1=O [compound 13] (H-FVPWF[Pra]KF[dL]GRI[Lys(N3)]-NH2; triazole 6-13; N-terminus assumed)
C. albicans ATCC 90028; ATCC 90028, 24 h
  MIC, C. albicans ATCC 90028: >50 µM
C. parapsilosis DSM 5784; DSM 5784, 24 h
  MIC, C. parapsilosis DSM 5784: >50 µM

## CC(C)C[C@H](NC(=O)[C@@H]1CCCCn2cc(nn2)C[C@H](NC(=O)[C@H](Cc2c[nH]c3ccccc23)NC(=O)[C@@H]2CCCN2C(=O)[C@@H](NC(=O)[C@@H](N)Cc2ccccc2)C(C)C)C(=O)N[C@@H](CO)C(=O)N[C@@H](CCCCN)C(=O)N[C@@H](Cc2ccccc2)C(=O)N[C@H](CC(C)C)C(=O)NCC(=O)N[C@@H](CCCNC(=N)N)C(=O)N1)C(N)=O [compound 14] (H-FVPW[Pra]SKF[dL]GR[Lys(N3)]L-NH2; triazole 5-12; N-terminus assumed)
C. albicans ATCC 90028; ATCC 90028, 24 h
  MIC, C. albicans ATCC 90028: >50 µM
C. parapsilosis DSM 5784; DSM 5784, 24 h
  MIC, C. parapsilosis DSM 5784: >50 µM

## CC[C@H](C)[C@H](NC(=O)[C@H](CCCNC(=N)N)NC(=O)[C@]1(C)CCCC=CCCC[C@](C)(NC(=O)[C@H](Cc2ccccc2)NC(=O)[C@H](Cc2c[nH]c3ccccc23)NC(=O)[C@@H]2CCCN2C(=O)[C@@H](NC(=O)[C@@H](N)Cc2ccccc2)C(C)C)C(=O)N[C@@H](CCCCN)C(=O)N[C@@H](Cc2ccccc2)C(=O)N[C@H](CC(C)C)C(=O)N1)C(=O)N[C@@H](CC(C)C)C(N)=O [compound 17] (H-FVPWF[S5]KF[dL][S5]RIL-NH2; staple 6-10; N-terminus assumed)
C. albicans ATCC 90028; ATCC 90028, 24 h
  MIC, C. albicans ATCC 90028: >50 µM
C. parapsilosis DSM 5784; DSM 5784, 24 h
  MIC, C. parapsilosis DSM 5784: >50 µM
